Source: patent US6841535B2, “Peptide-mediated transfection agents and methods of use” (Active Motif, priority 2000, dated 2005)
*1 amine or outer side, *2 acyl side, *3 side chain or, on linkers, in order; H or OH if unused. Where no end group is shown, it is not given here. Cysteamide = C(CS[*:3])N[*:1]

Tests used:
[1] = test system: mammalian fibroblasts, NIH 3T3 fibroblasts or murine L1210 lymphocytes; assay: Cellular localization of lucifer yellow-linked peptides; format: cell-based; conditions: 3 min incubation at 10 μM
[2] = test system: HS-68 and NIH 3T3 cell lines; assay: Peptide delivery by vector peptides (fluorescently labeled peptide B / peptide A); format: cell-based; conditions: transfection of fluorescently labeled peptide; one micromolar vector peptide; 1 h
Procedure: (§1) We evaluated the ability of peptides designed according to principles described herein, as well as variants thereof, to deliver peptides and proteins into HS-68 and NIH 3T3 cell lines. Peptide delivery was performed with a 32 mer peptide (peptide B), and in some cases a […] peptide (peptide A). The peptides were fluorescently labeled. Peptides (5.0×10^−8M or 5.0×10^−7M) were incubated with one micromolar vector peptide in cell culture medium in the absence of serum for 30 min. Cultured cells (0.5 to 1.0×10^6) were then overlaid with the preformed peptide/vector peptide complexes in 500 μL DMEM for one hour in the presence or absence of FCS. Complexes were formed prior to addition of FCS to avoid interactions between ep-vector and serum proteins. Following this transfection step, fresh DMEM supplemented with serum was added for another hour. Then cells were extensively washed, fixed and analyzed by fluorescence microscopy.
(§2) The results of the experiments testing the transfection properties of the peptides are presented as a table in which the sequences are aligned for optimal comparison: […]

[3] = test system: HS-68 and NIH 3T3 cell lines; assay: Drug delivery by vector peptides (ANS and Bis-ANS); format: cell-based; conditions: transfection of ANS and Bis-ANS; incubated with peptide at a molar ratio of 1:20; 1 h
Procedure: For investigation of drug delivery, we used the naphthalene derivatives ANS and Bis-ANS, which have intrinsic fluorescence. The drugs was incubated with peptide at a molar ratio of 1:20, followed by overlay of the complex onto cultured cells. This was followed by incubation for 1 h. Then cells were extensively washed and observed by microscopy.
as §2

[4] = test system: HS-68 and NIH 3T3 cell lines; assay: Protein delivery by vector peptides (GFP); format: cell-based; conditions: transfection of GFP; incubated with peptide at a molar ratio of 1:20; 1 h
Procedure: as §1
To investigate protein delivery we tested the delivery into cells of the fluorescent protein GFP. The protein was incubated with peptide at a molar ratio of 1:20, followed by overlay of the complex onto cultured cells. This was followed by incubation for 1 h. Then cells were extensively washed and fixed with formalin before observation.
as §2

[5] = test system: Acheloplasma laidlawii and Spiroplasma melliferum; conditions: concentrations much lower than minimal inhibitory concentrations; cited from earlier work
[6] = phosphatidylcholine or phosphatidylserine monolayers; cited from earlier work
[7] = test system: human fibroblasts (HS-68); assay: Cellular localization of rhodamine-labeled ODN-peptide conjugate; format: cell-based
Procedure: The first ODN has the sequence d(GGTCTTACTCTCCGTCTCT) (SEQ ID NO:30). It was modified in 5′ by a hexamethylene-bridged pyridyldisulfide and in 3′ by a 2-propanol-3-amino group and labeled with rhodamine. Conjugation was performed by stirring a solution of the oligonucleotide with a three fold excess of peptide for 3 h. […] The target compartment of the conjugate remains to be identified.

Row | Substance | Pep [2] | Drug [3] | Pro [4] | further results
1 | GALFLGWLGAAGSTMGARKKKRKV (Ac-GALFLGWLGAAGSTMGARKKKRKV; not fully specified (C-terminus); printed as GALFLGWLGAAGSTMGARKKKRKV) [[4]] |  |  |  | final localization of lucifer yellow-linked peptide [1]: remains membrane associated
2 | GALFLGWLGAAGSTMGAWSQPKKKRKV (Ac-GALFLGWLGAAGSTMGAWSQPKKKRKV; not fully specified (C-terminus); printed as GALFLGWLGAAGSTMGAWSQPKKKRKV) [[3]] |  |  |  | final localization of lucifer yellow-linked peptide [1]: both localizations, membrane associate and nuclear
3 | KETWWETWWETWSQKKKRKV [Pep-2.9-cya] | 5% |  |  | 
4 | KETWWETWWTEWSQPKKRKV [Pep-2.1-cya] | 80% | 20% | 70% | 
5 | KTWWETWWETWSQPKKRKV [Pep-4.2-cya] | Aggr. | Aggr. | Aggr. | 
6 | Lys Glu Thr Trp Trp Glu Thr Trp Thr Trp Ser Gln Pro Lys Lys Lys Arg Lys Val (Ac-KETWWETWTWSQPKKKRKV-Cysteamide) [Pep-2.4-cya] | 60% | 5% | 20-30% | 
7 | Lys Glu Thr Trp Trp Glu Thr Trp Trp Glu Thr Trp Ser Gln Pro Lys Lys Lys Arg Lys Val (Ac-KETWWETWWETWSQPKKKRKV-Cysteamide) [Pep-2.3-cya] | 60-70% | 30% | 50-70% | 
8 | Lys Glu Thr Trp Trp Glu Thr Trp Trp Thr Glu Ala Ser Gln Pro Lys Lys Arg Lys Val (Ac-KETWWETWWTEASQPKKRKV-Cysteamide) [Pep-2.2-cya] |  | 5% | 30% | 
9 | Lys Glu Thr Trp Trp Glu Thr Trp Trp Thr Glu Trp Ser Gln Pro Lys Lys Lys Arg Lys Val (Ac-KETWWETWWTEWSQPKKKRKV-Cysteamide) [Pep-2-cya] |  | 20% |  | 
10 | Lys Lys Lys Arg Lys Val Lys Glu Thr Trp Trp Glu Thr Trp Trp Glu Thr Val (Ac-KKKRKVKETWWETWWETV-Cysteamide; SMILES CC(=O)N[C@@H](CCCCN)C(=O)N[C@@H](CCCCN)C(=O)N[C@@H](CCCCN)C(=O)N[C@@H](CCCNC(=N)N)C(=O)N[C@@H](CCCCN)C(=O)N[C@H](C(=O)N[C@@H](CCCCN)C(=O)N[C@@H](CCC(=O)O)C(=O)N[C@H](C(=O)N[C@@H](Cc1c[nH]c2ccccc12)C(=O)N[C@@H](Cc1c[nH]c2ccccc12)C(=O)N[C@@H](CCC(=O)O)C(=O)N[C@H](C(=O)N[C@@H](Cc1c[nH]c2ccccc12)C(=O)N[C@@H](Cc1c[nH]c2ccccc12)C(=O)N[C@@H](CCC(=O)O)C(=O)N[C@H](C(=O)N[C@H](C(=O)NCCS)C(C)C)[C@@H](C)O)[C@@H](C)O)[C@@H](C)O)C(C)C) [Pep-2.6-cya] | 30% |  | 20% | 
11 | Lys Lys Lys Arg Lys Val Lys Pro Glu Thr Trp Trp Glu Thr Trp Trp Glu Thr Val (Ac-KKKRKVKPETWWETWWETV-Cysteamide) [Pep-2.7-cya] | 20-30% |  | 10-20% | 
12 | Lys Thr Trp Trp Glu Thr Trp Trp Glu Thr Ala Ser Gln Pro Lys Lys Arg Lys Val (Ac-KTWWETWWETASQPKKRKV-Cysteamide; SMILES CC(=O)N[C@@H](CCCCN)C(=O)N[C@H](C(=O)N[C@@H](Cc1c[nH]c2ccccc12)C(=O)N[C@@H](Cc1c[nH]c2ccccc12)C(=O)N[C@@H](CCC(=O)O)C(=O)N[C@H](C(=O)N[C@@H](Cc1c[nH]c2ccccc12)C(=O)N[C@@H](Cc1c[nH]c2ccccc12)C(=O)N[C@@H](CCC(=O)O)C(=O)N[C@H](C(=O)N[C@@H](C)C(=O)N[C@@H](CO)C(=O)N[C@@H](CCC(N)=O)C(=O)N1CCC[C@H]1C(=O)N[C@@H](CCCCN)C(=O)N[C@@H](CCCCN)C(=O)N[C@@H](CCCNC(=N)N)C(=O)N[C@@H](CCCCN)C(=O)N[C@H](C(=O)NCCS)C(C)C)[C@@H](C)O)[C@@H](C)O)[C@@H](C)O) [Pep-4.1-cya] | Aggr. | Aggr. | Aggr. | 
13 | Lys Trp Trp Glu Thr Trp Trp Glu Thr Trp Ser Gln Pro Lys Lys Lys Arg Lys Val (Ac-KWWETWWETWSQPKKKRKV-Cysteamide) [Pep-2.5-cya] | 50-60% | 5% | 5% | 
14 | MGLGLHLLVLAAALQGAWSQPKKKRKV (Ac-MGLGLHLLVLAAALQGAWSQPKKKRKV; not fully specified (C-terminus); printed as MGLGLHLLVLAAALQGAWSQPKKKRKV) [[1]] |  |  |  | final localization of lucifer yellow-linked peptide [1]: localize in the nuclei of the cells; effect on membrane potential and transmembrane pH gradient [5]: decrease; surface pressure increase [6]: ~15 mN/m
15 | Tyr Gly Phe Lys Lys Arg Arg Gln Pro Thr Trp Trp Glu Thr Trp Trp Thr Glu (Ac-YGFKKRRQPTWWETWWTE-Cysteamide) [Pep-1.1-cya] | 80% | 5% | 60% | 
16 | Tyr Gly Phe Lys Lys Arg Arg Gln Thr Trp Trp Glu Thr Trp Trp Thr Glu (Ac-YGFKKRRQTWWETWWTE-Cysteamide) [Pep-1.2-cya] | 80% | 5% | 80-90% | 
17 | Tyr Gly Phe Lys Lys Phe Arg Lys Pro Trp Thr Trp Trp Glu Thr Trp Trp Thr Glu (Ac-YGFKKFRKPWTWWETWWTE-Cysteamide; SMILES CC(=O)N[C@@H](Cc1ccc(O)cc1)C(=O)NCC(=O)N[C@@H](Cc1ccccc1)C(=O)N[C@@H](CCCCN)C(=O)N[C@@H](CCCCN)C(=O)N[C@@H](Cc1ccccc1)C(=O)N[C@@H](CCCNC(=N)N)C(=O)N[C@@H](CCCCN)C(=O)N1CCC[C@H]1C(=O)N[C@@H](Cc1c[nH]c2ccccc12)C(=O)N[C@H](C(=O)N[C@@H](Cc1c[nH]c2ccccc12)C(=O)N[C@@H](Cc1c[nH]c2ccccc12)C(=O)N[C@@H](CCC(=O)O)C(=O)N[C@H](C(=O)N[C@@H](Cc1c[nH]c2ccccc12)C(=O)N[C@@H](Cc1c[nH]c2ccccc12)C(=O)N[C@H](C(=O)N[C@@H](CCC(=O)O)C(=O)NCCS)[C@@H](C)O)[C@@H](C)O)[C@@H](C)O) [Pep-3-cya] | 50% | 50-70% | 5% | 
18 | d(GGTCTTACTCTCCGTCTCT) (DNA, backbone not given here; 5' hexamethylene pyridyldisulfide, 3' 2-propanol-3-amino, rhodamine label, peptide conjugated) [first ODN] |  |  |  | cellular localization of the conjugate ([7]; ODN conjugated to peptide, 5 min incubation): clearly cytoplasmic but not nuclear; cellular internalization of the free oligonucleotide ([7]; free, not conjugated): no spontaneous cellular internalization could be detected
